Assay results published in patent US8193193B2, “Agent for prevention or treatment of glaucoma” (Kowa Co., Ltd., priority 2005, dated 2012).

Assays:
IOP [1] = experiment: Ocular hypotensive effect after instillation, alone or in combination, in rabbits (change from initial IOP); assay type: in vivo, Japanese white rabbits; settings: male JW rabbits, brinzolamide 1%, 50 μL; for persistence of ocular hypotensive action (FIG. 2): after 4 and also 5 hours from instillation, 1.5% solution; for persistence of ocular hypotensive action (FIG. 1): after 3 or 4 hours from instillation, 0.5% solution
Description: To examine usefulness of combination use of a Rho kinase inhibitor and a carbonic anhydrase inhibitor, the ocular hypotensive effects were compared by administering either of these drugs alone or both in combination to laboratory animals. (S)-(−)-1-(4-fluoro-5-isoquinolinesulfonyl)-2-methyl-1,4-homopiperazine-hydrochloride dihydrate was dissolved in physiological saline, and the solution was neutralized (pH 6.0) by adding sodium dihydrogenphosphate and sodium hydroxide to prepare a (S)-(−)-1-(4-fluoro-5-isoquinolinesulfonyl)-2-methyl-1,4-homopiperazine solution at a desired concentration. The commercially available “Eril® S Injection” (Asahi Kasei Pharma) was used as it was. The commercially available “Azopt® Ophthalmic Suspension 1%” (Alcon Japan Ltd.) was used as it was. The ocular hypotensive effect was examined after the combination use of (S)-(−)-1-(4-fluoro-5-isoquinolinesulfonyl)-2-methyl-1,4-homopiperazine and brinzolamide. As a control, the ocular hypotensive effect was also examined after the use of brinzolamide alone or (S)-(−)-1-(4-fluoro-5-isoquinolinesulfonyl)-2-methyl-1,4-homopiperazine alone. Similarly, the ocular hypotensive effect was examined after the combination use of hexahydro-1-(5-isoquinolinesulfonyl)-1H-1,4-diazepine and brinzolamide. As a control, the ocular hypotensive effect was also examined after the use of brinzolamide alone or hexahydro-1-(5-isoquinolinesulfonyl)-1H-1,4-diazepine alone. (S)-(−)-1-(4-fluoro-5-isoquinolinesulfonyl)-2-methyl-1,4-homopiperazine solution: 0.5% solution (instillation volume, 50 μL) Hexahydro-1-(5-isoquinolinesulfonyl)-1H-1,4-diazepine solution: fasudil hydrochloride hydrate injection (1.5% solution [trade name: Eril® S Injection]; instillation volume, 50 μL) Brinzolamide solution: brinzolamide ophthalmic solution ([trade name: Azopt® Ophthalmic Suspension 1%]; instillation volume, 50 μL) Laboratory animals: Japanese white rabbits (male JW rabbits, 5 animals per group) 1). One drop of 0.4% oxybuprocaine hydrochloride ophthalmic solution (trade name: Benoxil Ophthalmic Solution 0.4%) was instilled in both eyes of the laboratory animals for local anesthesia (only data for the instilled eyes are shown). 2) IOP was measured immediately before administration of the test compound solution as the initial IOP. 3) The brinzolamide solution was instilled in one eye of the laboratory animals, followed by the instillation of (S)-(−)-1-(4-fluoro-5-isoquinolinesulfonyl)-2-methyl-1,4-homopiperazine solution in the same eye. 4) At 1 hour, 2 hours, 3 hours, 4 hours, and 5 hours after the instillation of both drugs, one drop each of 0.4% oxybuprocaine hydrochloride ophthalmic solution was instilled in both eyes for local anesthesia, and IOP was measured. […]

IOP [2] = settings: rabbits with normal IOP, cited from earlier work

| Compound | persistence of ocular hypotensive action (FIG. 2) (IOP [1]) | time after instillation from which IOP is lowered (IOP [2]) [h] | maximum IOP reduction (IOP [2]; instillation, concentration of 0.1%) [mmHg] | persistence of ocular hypotensive action (FIG. 1) (IOP [1]) |
| --- | --- | --- | --- | --- |
| O=S(=O)(c1cccc2cnccc12)N1CCCNCC1 [hexahydro-1-(5-isoquinolinesulfonyl)-1H-1,4-diazepine] | ocular hypotensive effect disappeared |  |  |  |
| C[C@@H](N)c1ccc(C(=O)Nc2ccnc3[nH]ccc23)cc1 [Y-39983, 4-[(1R)-1-aminoethyl]-N-1H-pyrrolo[2,3-b]pyridin-4-ylbenzamide] |  | 1 | 15 |  |
| CCN[C@H]1CN(CCCOC)S(=O)(=O)c2sc(S(N)(=O)=O)cc21 [brinzolamide] | ocular hypotensive effect disappeared |  |  | ocular hypotensive effect disappeared |
| C[C@H]1CNCCCN1S(=O)(=O)c1cccc2cncc(F)c12 [(S)-(−)-1-(4-fluoro-5-isoquinolinesulfonyl)-2-methyl-1,4-homopiperazine] |  |  |  | ocular hypotensive effect disappeared |
